Reference: US11117901B2, “Substituted pyrazolo[4,3-h]quinazolines as choline kinase inhibitors” (NERVIANO MEDICAL SCIENCES S.R.L., priority 2017, dated 2021)
pIC50: −log10 of the molar value. Like-named read-outs stand apart in the source and are kept apart here.

What was measured:
[1] = molecular target: T1, Δ49N-hChoKα (Homo sapiens, UniProt P35790); assay: Biochemical kinase inhibition assay (Kinase-Glo luminescent) on Δ49N-hChoKα; details: ATP 5 μM, choline 5 μM, 60 min rt
T1 construct: cDNA fragment 362-1534, corresponding to aminoacids 50 457; GST (N, cleaved yes); PreScission Protease recognition site (N); made in house; host or cells: Escherichia coli BL21pLysS (DE3)
T1 sequence (P35790 50-439 isoform P35790-2): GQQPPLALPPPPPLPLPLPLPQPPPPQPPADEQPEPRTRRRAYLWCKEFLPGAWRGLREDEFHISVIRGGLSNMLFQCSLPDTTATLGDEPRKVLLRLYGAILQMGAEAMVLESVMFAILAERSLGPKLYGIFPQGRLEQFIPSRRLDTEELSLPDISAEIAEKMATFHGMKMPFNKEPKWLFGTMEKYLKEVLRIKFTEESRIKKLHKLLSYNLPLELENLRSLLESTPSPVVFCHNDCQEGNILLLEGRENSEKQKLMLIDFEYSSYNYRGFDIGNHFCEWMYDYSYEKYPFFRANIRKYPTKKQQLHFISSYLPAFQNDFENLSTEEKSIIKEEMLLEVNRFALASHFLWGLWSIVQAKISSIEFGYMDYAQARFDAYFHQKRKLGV
Procedure: (§1) HumanΔ49ChoKα ([…]Δ49N-hChoKα) cDNA fragment 362-1534, corresponding to aminoacids 50 457 (J. Mol. Biol. 2006, 364, 136-151), and hChoKβ full length (FL), corresponding to aminoacids 2-395 ((PLoS ONE 2009, 4, e7819), were amplified by PCR from human library and cloned, inserting upstream a Prescission Protease recognition site, in pDonor 221 vector, using the Gateway Technology® (Invitrogen). After sequence control, LR reaction was performed in the final expression pGEX 2Tg vector. Both the proteins were expressed in Escherichia coli BL21pLysS (DE3) strain in auto-induction (Kessler) medium in the presence of […] carbenicillin at 25° C. for 16 h. Cells were harvested by centrifugation, the pellet was re-suspended in Lysis buffer (50 mM Tris-HCl pH 7.8, 150 mM NaCl, 10% glycerol, 0.2% CHAPS, 20 mM DTT, Protease Inhibitor Cocktail Tablets from Roche Biochemicals) and lysed by Gaulin homogenizer (Niro Soavi). The lysate was cleared by centrifugation. The supernatant was added to GSH resin and let flow by gravity. The GSH resin was washed with 5 column volume (CV) of cold wash buffer (50 mM Tris-HCl pH 7.8, 150 mM NaCl, 10% glycerol), then with 10 CV of the same buffer containing 2 mM of DTT. Both GST-Δ49N-hChoKα and hChoKβ were subjected to on-column cleavage of the GST tag with Prescission Protease overnight. The eluted cleaved proteins were further purified by ion exchange (ResQ 6 mL chromatography column from GE healthcare) with a gradient from 50 to 500 mM NaCl in 30 CV. The fractions containing […]Δ49N-hChoKα or hChoKβ were pooled, concentrated and gel filtered on a Superdex200 16/60 (GE Healthcare). The final protein concentration was estimated using the Bradford assay. All the samples purified were resolved by SDS-PAGE.
(§2) Biochemical Kinase inhibition Assay on Δ49N-hChoKα and hChoKβFL
(§3) The biochemical activity of compounds against Δ49N-ChoKα and ChoK3 FL were determined using the Kinase-Glo™ Luminescent Kinase Assay (Promega cat. V6711). The assay is based on incubation of the recombinant Δ49N-hChoKα and hChoKβ FL produced in house, 2.2 nM and 30 nM, respectively, with the specific substrates, choline (Sigma-Aldrich-C7017) and ATP, followed by quantification, at the end of reaction time, of the residual not reacted ATP.
(§4) Compounds were 3-fold serially diluted from 10 to 0.0005 μM, then incubated for 60 minutes at room temperature in the presence of ATP 5 μM, choline (5 μM for ChoKα and 20 μM for ChoKβ) and enzyme in a final volume of 19 μL of kinase buffer (50 mM Hepes pH 7.5, 10 mM MgCl2, 1 mM DTT, 3 μM Na3VO4 and 0.2 mg/mL BSA). The final concentration of DMSO was 1%. The assay was run in a robotized format on 384-well plates (Perkin Elmer cat. #6005301).
(§5) At the end of the incubation, an amount of 19 μL of KinaseGlo Reagent was added to each well to stop the reaction and after 30 minutes the luminescence signal was measured using ViewLux reader (Perkin Elmer).
(§6) All information about plate dilution, distribution and raw data of inhibition are tracked via barcode reading and stored in an Oracle DB. The data per each molecule are analyzed by an internally customized version of the SW package “Assay Explorer” which provides sigmoidal fittings of the ten-dilution curves for IC50 determination using a 4 parameter logistic equation: y=bottom+(top−bottom)/(1+10^((log IC50−x)*slope)) where x is the logarithm of the inhibitor concentration, y is the response; y starts at bottom and goes to top with a sigmoid shape.

[2] = molecular target: T2, hChoKβ FL (Homo sapiens, UniProt Q9Y259); assay: Biochemical kinase inhibition assay (Kinase-Glo luminescent) on hChoKβ FL; details: ATP 5 μM, choline 20 μM, 60 min rt
T2 construct: hChoKβ full length (FL), corresponding to aminoacids 2-395; GST (N, cleaved yes); PreScission Protease recognition site (N); made in house; host or cells: Escherichia coli BL21pLysS (DE3)
T2 sequence (Q9Y259 2-395): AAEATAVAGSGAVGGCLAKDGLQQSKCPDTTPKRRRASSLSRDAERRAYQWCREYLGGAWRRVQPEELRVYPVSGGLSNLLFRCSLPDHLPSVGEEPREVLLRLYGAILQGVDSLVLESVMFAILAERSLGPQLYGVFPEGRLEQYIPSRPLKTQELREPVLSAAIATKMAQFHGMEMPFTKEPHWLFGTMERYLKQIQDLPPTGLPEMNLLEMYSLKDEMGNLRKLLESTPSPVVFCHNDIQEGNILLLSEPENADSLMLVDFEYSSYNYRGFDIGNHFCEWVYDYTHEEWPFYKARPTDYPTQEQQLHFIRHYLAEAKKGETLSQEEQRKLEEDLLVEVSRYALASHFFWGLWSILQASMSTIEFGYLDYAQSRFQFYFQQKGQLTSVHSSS
Procedure: as §1, §2, §3, §4, §5, §6

[3] = recombinant Δ49N-hChoKα 2.2 nM, read-out: ChoKα IC50
[4] = recombinant hChoKβ FL 30 nM, read-out: ChoKβ IC50

| SMILES | pIC50 [1, 3] | pIC50 [2, 4] | pIC50 ([1]; ChoKα IC50, recombinant Δ49N-hChoKα 2.2 nM) | pIC50 ([2]; ChoKβ IC50, recombinant hChoKβ FL 30 nM) |
| --- | --- | --- | --- | --- |
| CC1(C)Cc2cnc(N)nc2-c2[nH]nc(C(=O)Nc3ccc(C(=O)N[C@H]4CC[C@H](O)CC4)cc3)c21 [compound 28] | 6.29 | 5.51 | – | – |
| CC1(C)Cc2cnc(N)nc2-c2[nH]nc(C(=O)Nc3ccc(C(=O)NC4CCCC4)cc3)c21 [compound 29] | 6.88 | 7.15 | – | – |
| CC1(C)Cc2cnc(N)nc2-c2[nH]nc(C(=O)Nc3ccc(C(=O)NC4CCC4)cc3)c21 [compound 30] | 6.96 | 6.87 | – | – |
| CC1(C)Cc2cnc(N)nc2-c2[nH]nc(C(=O)Nc3ccc(C(=O)NC4CC4)cc3)c21 [compound 31] | 6.59 | 6.37 | – | – |
| Cc1csc(NC(=O)c2n[nH]c3c2C(C)(C)Cc2cnc(N)nc2-3)n1 [compound 32] | 7.18 | 5.96 | – | – |
| CCOC(=O)Cc1csc(NC(=O)c2n[nH]c3c2C(C)(C)Cc2cnc(N)nc2-3)n1 [compound 33] | 6.37 | < 5.00 | – | – |
| CC1(C)Cc2cnc(N)nc2-c2[nH]nc(C(=O)NC3CCCCC3)c21 [compound 34] | 6.13 | < 5.00 | – | – |
| CC1(C)Cc2cnc(N)nc2-c2[nH]nc(C(=O)Nc3nc(CC(=O)NC4CCCCC4)cs3)c21 [compound 35] | 7.33 | 6.36 | – | – |
| CC1(C)Cc2cnc(N)nc2-c2[nH]nc(C(=O)N3CCC(N4CCCC4)CC3)c21 [compound 36] | 6.32 | < 5.00 | – | – |
| CC1(C)Cc2cnc(N)nc2-c2[nH]nc(C(=O)Nc3nc(CC(=O)N4CCC(N5CCCC5)CC4)cs3)c21 [compound 37] | 8.52 | 7.16 | – | – |
| CC1(C)Cc2cnc(N)nc2-c2[nH]nc(C(=O)N3CCC(N4CCCCC4)CC3)c21 [compound 38] | 6.17 | < 5.00 | – | – |
| CN1CCN(C2CCN(C(=O)c3ccc(NC(=O)c4n[nH]c5c4C(C)(C)Cc4cnc(N)nc4-5)cc3)CC2)CC1 [compound 41] | 7.15 | 6.33 | – | – |
| CC1(C)Cc2cnc(N)nc2-c2[nH]nc(C(=O)Nc3nc(CC(=O)O)cs3)c21 [compound 42] | 7.27 | < 5.00 | – | – |
| CC(C)(C)OC(=O)NC1CCN(C(=O)Cc2csc(NC(=O)c3n[nH]c4c3C(C)(C)Cc3cnc(N)nc3-4)n2)CC1 [compound 43] | 8.15 | 5.99 | – | – |
| CC1(C)Cc2cnc(N)nc2-c2[nH]nc(C(=O)Nc3nc(CC(=O)N4CCC(N)CC4)cs3)c21 [compound 44] | 7.60 | 6.59 | – | – |
| CC1(C)Cc2cnc(N)nc2-c2[nH]nc(C(=O)Nc3nc(CC(=O)N4CCC(=O)CC4)cs3)c21 [compound 45] | – | – | 6.92 | < 5.00 |
| CC(C)(C)OC(=O)NC1CCN(C(=O)c2ccc(NC(=O)c3n[nH]c4c3C(C)(C)Cc3cnc(N)nc3-4)cc2)CC1 [compound 46] | 6.96 | 5.79 | – | – |
| CC1(C)Cc2cnc(N)nc2-c2[nH]nc(C(=O)Nc3nc(CC(=O)N4CCC(N5CCCCCC5)CC4)cs3)c21 [compound 47] | 8.70 | 7.07 | – | – |
| CC1(C)Cc2cnc(N)nc2-c2[nH]nc(C(=O)Nc3ccc(C(=O)N4CCC(N)CC4)cc3)c21 [compound 49] | 6.21 | 6.12 | – | – |
| CC1(C)Cc2cnc(N)nc2-c2[nH]nc(C(=O)Nc3ccc(C(=O)N4CCC(N5CCOCC5)CC4)cc3)c21 [compound 50] | 6.67 | 6.15 | – | – |
| CC1(C)Cc2cnc(N)nc2-c2[nH]nc(C(=O)Nc3ccc(C(=O)N4CCC(N5CCC(F)(F)CC5)CC4)cc3)c21 [compound 51] | 6.82 | 6.56 | – | – |
| CC1CCN(C2CCN(C(=O)c3ccc(NC(=O)c4n[nH]c5c4C(C)(C)Cc4cnc(N)nc4-5)cc3)CC2)CC1 [compound 52] | 8.52 | 7.15 | – | – |
